Experimental data taken from patent publication US20250188078A1, “SMALL MOLECULE INHIBITORS OF THE CRL4 UBIQUITIN LIGASE” (Cornell University, priority 2022, published 2025).

Legend:
[1] = Dynamic light scattering (DLS) solubility assay; assay type: physicochemical; details: normalized intensity ratio of 25 μM compound vs DMSO, in PBS
Procedure, shortened: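 Compounds diluted from DMSO into PBS at final concentrations of 200 μM to 0.78 μM, in triplicate, and aggregation measured by light scattering intensity. A ratio above 2 scores insoluble (−), below 2 soluble (+), and around 2 (+/−).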

DDB1-BPB [2] = target: T1, DDB1-BPB (Homo sapiens (Human), UniProt Q16531); test: Microscale Thermophoresis (MST) binding to DDB1-BPB; details: labeled DDB1-BPB, 25° C.
Description: Kd represents dissociation constant, which measures the affinity of small molecule binding to the scaffold DDB1-BPB by Microscale Thermophoresis (MST) (see Table 1, column 9). MST experiments were performed on a Monolith NT 115 system (Nano Temper Technologies, Munich, Germany) using 100% LED and 60% IR-laser power (https://physiology.case.edu/media/eq manuals/eq_manual_nano-temper_mst_starting_guide.pdf, hereby incorporated by reference in its entirety for all purposes). The labeling of DDB1-BPB ([…]) was performed in labeling buffer with NHS-Red reactive dye (30 μM) (Nanotemper), which reacts efficiently with the primary amines of the proteins to form a stable dye protein conjugates. The labeling reaction was carried out at RT. A 16-point serial dilution (1:1) was prepared for compound at the final concentration ranged from 200 µM to 3 nM in PBS containing 0.05% tween. The samples were filled into Premium capillaries and measurements were conducted at 25° C. An equation implemented by the software MO-S002 MO Affinity Analysis, provided by the manufacturer, was used for fitting normalized fluorescence values at different concentrations of ligands.

[3] = system: CUL4A^high MDA-MB-468 breast cancer cells; test: Cell killing in CUL4-high MDA-MB-468 cells (CellTiter Glo); assay type: cell-based; details: Homo sapiens, 192 h; MDA-MB-468 cells, 8 days treatment; read-out: EC50 CUL4-High Cells (cell killing)
Procedure, shortened: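 Cells seeded, treated after 24 h with DMSO or compound (0 to 20 μM). Medium and compound replaced every 48 h over 8 days. Viability measured by CellTiter-Glo luminescence; EC50 (50% killing) from log(inhibitor) vs response nonlinear fit.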

[4] = system: CUL4A^low T47D breast cancer cells; test: Cell killing in CUL4-low T47D cells (CellTiter Glo); assay type: cell-based; details: Homo sapiens, 192 h; T47D cells, 8 days treatment; read-out: EC50 CUL4-Low Cells (cell killing)
Description: EC50 indicates compound concentration can cause 50% cell killing in CUL4° ^w T47D cells (see Table 1, column 7). CUL4A^low T47D breast cancer cells were seeded in 96 well plate. […] Change fresh medium and compounds every 48 hours. After 8 days treatment, cell viability was examined by using CellTiter Glo kit (Promega #7570) following the manufacturer's guidelines (https://www.promega.com/-/media/files/resources/protocols/technical-bulletins/0/celltiter-glo-luminescent-cell-viability-assay-protocol.pdf?rev=0d95c232094b41daa06d0c110d1d916f&sc_lang=en, hereby incorporated by reference in its entirety for all purposes). EC50 concentration was calculated by Prism 8 XY analysis nonlinear regression (curve fit-Log(inhibitor) vs response). EC50 indicates cell killing potential in CUL4 low T47D cell line and the EC50 difference between CUL4^high and CUL4^low cells indicates the small molecule cause specific cell killing.
CUL4A^high MDA-MB-468, CUL4^low (T47D), and MCF7 breast cancer cells were seeded in 96 well plates separately. […] Replace with fresh medium and compounds every 48 hours. After 8 days treatment, cell viability was examined by CellTiter Glo kit (Promega #7570). First, transfer the appropriate volume (10 ml for Cat. #G7570) of CellTiter-Glo® Buffer into the amber bottle containing CellTiter-Glo® Substrate to reconstitute the lyophilized enzyme/substrate mixture. This forms the CellTiter-Glo® Reagent. Second, add CellTiter-Glo® Reagent in an equal volume (100 μl per well for 96-well plates) to all wells. Mix contents for 2 minutes on an orbital shaker to induce cell lysis. Incubate at room temperature for 15 minutes to stabilize luminescent signal. Then record luminescence. EC50 concentration was calculated by Prism 8 XY analysis nonlinear regression (curve fit-Log(inhibitor) vs response).

[5] = target: CUL4A-DDB1-BPB interaction (Homo sapiens (Human), UniProt Q16531); test: AlphaLISA in vitro binding assay, CUL4A and DDB1-BPB binding; details: inhibition of CUL4A and DDB1-BPB binding
Procedure, shortened: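 Compound disruption of CUL4A binding to DDB1-BPB measured by AlphaLISA/AlphaScreen bead proximity in 384-well format. IC50 from nonlinear log(inhibitor)-vs-response curve fit.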

[6] = system: UV-induced CUL4-dependent DDB2 degradation in MEF-F-DDB2 cells; test: Cell-based assay for inhibition of UV-induced CUL4-dependent DDB2 degradation; parameters: key: (+) means that the normalized DDB2/α-tubulin ratio is higher in the compound treated sample than DMSO treated sample; (−) means that no change happens between compound treated sample with control sample; details: DDB2/α-tubulin by Western blot
Procedure, shortened: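 MEF cells expressing Flag-DDB2, in serum-free medium, treated with DMSO or compound, UV-irradiated (254 nm, 0.2 W/m^2), then harvested. Flag-DDB2 measured by western blot against α-tubulin; (+) denotes normalized DDB2/α-tubulin above DMSO, (−) no change.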

DDB1-BPB [7] = target: T1, DDB1-BPB; test: Surface Plasmon Resonance (SPR) binding to DDB1-BPB; details: DDB1-BPB immobilized
Excerpt: Kd represents dissociation constant, which measures the affinity of small molecule binding to the scaffold DDB1-BPB by Surface Plasmon Resonance (SPR) (https://www.bio-rad.com/webroot/web/pdf/lsr/literature/Bulletin_6414.pdf, hereby incorporated by reference in its entirety) (see Table 1, column 8). To assess the interaction between DDB1-BPB and compounds, a multi-parametric SPR instrument (BioRad ProteON XPR360) was used. DDB1-BPB was immobilized onto the GLH sensor surface in a variety of ways as follows: flow channels were activated in parallel with 1/20 diluted EDC/SNHS. DDB1-BPB was diluted to 0.1 mg/mL in sodium acetate pH 4.5 and directly coupled onto channel for 4 min. Excess reactive esters were blocked with a 5-min injection of 1 M ethanolamine. Mean immobilization levels were 17,000 RU with <2% variation along a strip. One channel was left unmodified to provide an additional reference surface. Next, the binding kinetics of compounds on surfaces was determined in a single injection using a “one-shot” kinetic mode. Typically, compound was prepared as a twofold serial dilution (0, 3.125, 6.25, 12.5, 25, 50 μM) and injected for 60 s at […]. Dissociation was monitored for 800 s. Surfaces were regenerated with multiple 30-s pulses of 60 mM phosphoric acid so that the experiment could be reproduced. All resulting sensor grams were collected and analyzed using the ProteOn manager software.

Chain of CUL4A-DDB1-BPB interaction (Q16531 403-706): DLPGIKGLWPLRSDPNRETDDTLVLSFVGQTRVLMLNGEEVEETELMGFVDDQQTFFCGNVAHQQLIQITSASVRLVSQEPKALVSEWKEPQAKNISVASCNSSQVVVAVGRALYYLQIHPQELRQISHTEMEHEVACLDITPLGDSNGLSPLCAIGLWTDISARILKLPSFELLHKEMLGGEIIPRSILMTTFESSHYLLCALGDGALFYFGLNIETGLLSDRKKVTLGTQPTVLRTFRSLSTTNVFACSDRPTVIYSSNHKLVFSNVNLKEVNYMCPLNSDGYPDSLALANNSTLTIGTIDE
T1 sequence (Q16531 403-706): as above

SMILES	Solubility (DLS Assay) [1]	Kd (DDB1-BPB [2]) [µM]	IC50 [5] [µM]	Kd (DDB1-BPB [7]) [µM]	Kd (MST) (DDB1-BPB [2])	AlphaLisa IC50 [5]	Kd (SPR) (DDB1-BPB [7])	EC50 [3] [µM]	EC50 [4] [µM]	Degradation Inhibition (inhibition of UV-induced DDB2 degradation) [6]
CN(c1ccc(-c2nc(C(=O)O)cc3c2[nH]c2ccc(F)cc23)cc1)S(=O)(=O)c1cccnc1 [PA2-6, 6-fluoro-1-(4-(N-methylpyridine-3-sulfonamido)phenyl)-9H-pyrido[3,4-b]indole-3-carboxylic acid]	-(insoluble)	25.5	0.47					22.3	> 100	−
CS(=O)(=O)c1ccc(-c2nc(C(=O)O)cc3c2[nH]c2ccc(O)cc23)cc1 [PA73]	+/−		0.73 ± 0.35	7.34				> 100	> 100	
COC(=O)c1cc2c([nH]c3ccccc32)c(-c2ccc(NCc3ccc(F)cc3)cc2)n1 [PA57, methyl 1-[4-[(4-fluorophenyl)methylamino]phenyl]-9H-pyrido[3,4-b]indole-3-carboxylate]	-(insoluble)				Insoluble	Neg		1.08	1.6	
COC(=O)c1cc2c([nH]c3cccc(F)c32)c(-c2ccc(N(C)S(=O)(=O)c3ccccc3)cc2)n1 [PA99-1, methyl 5-fluoro-1-(4-(N-methylphenylsulfonamido)phenyl)-9H-pyrido[3,4-b]indole-3-carboxylate]	-(insoluble)	321				Neg		3.47	> 100	+
O=C(O)c1cc2c([nH]c3ccccc32)c(-c2ccc(NCc3ccc(F)cc3)cc2)n1 [PA68, 1-[4-[(4-fluorophenyl)methylamino]phenyl]-9H-pyrido[3,4-b]indole-3-carboxylic acid]			2.33 ± 0.86	13.2	Insoluble			9.12	11	
Cc1ccc2[nH]c3c(-c4ccc(S(C)(=O)=O)cc4)nc(C(=O)O)cc3c2c1 [PA72]	+/−		0.78 ± 0.02	4.57						−
Cc1ccc(S(=O)(=O)N(C)c2ccc(-c3nc(C(=O)O)cc4c3[nH]c3ccc(F)cc34)cc2)cc1 [PA2-1, 6-fluoro-1-[4-[methyl-(p-tolylsulfonyl)amino]phenyl]-9H-pyrido[3,4-b]indole-3-carboxylic acid]	-(insoluble)		0.3					9.32	> 100	−
COC(=O)c1cc2c([nH]c3ccc(F)cc32)c(-c2ccc(N(C)S(=O)(=O)c3ccccc3)cc2)n1 [PA93-1]	-(insoluble)					Neg		21.8	> 100	−
COC(=O)c1cccc(-c2nc(C(=O)OC(C)(C)C)cc3c2[nH]c2ccccc23)c1 [PA43]	-(insoluble)					Neg	no binding	28.3	48.2	

The next lines start with results.

Solubility (DLS Assay) [1]	Kd (DDB1-BPB [2]) [µM]	IC50 [5] [µM]	Kd (DDB1-BPB [7]) [µM]	Kd (MST) (DDB1-BPB [2])	AlphaLisa IC50 [5]	Kd (SPR) (DDB1-BPB [7])	SMILES	EC50 [3] [µM]	EC50 [4] [µM]	Degradation Inhibition (inhibition of UV-induced DDB2 degradation) [6]
-(insoluble)	257	17.4 ± 7.42					CN(c1ccc(-c2nc(C(=O)O)cc3c2[nH]c2cc(-c4ccccc4)ccc23)cc1)S(=O)(=O)c1ccccc1 [PA115, 1-[4-[benzenesulfonyl(methyl)amino]phenyl]-7-phenyl-9H-pyrido[3,4-b]indole-3-carboxylic acid]	2.15	3.86	
	59.6	5.99 ± 0.43					O=C(O)c1cc2c([nH]c3ccccc32)c(-c2ccc(SCc3ccccc3)cc2)n1 [PA66, 1-(4-benzylsulfanylphenyl)-9H-pyrido[3,4-b]indole-3-carboxylic acid]	4.41	4	
	25.4	2.5					CN(c1ccc(-c2nc(C(=O)O)cc3c2[nH]c2cc(Br)ccc23)cc1)S(=O)(=O)c1ccccc1 [PA117, 1-[4-[benzenesulfonyl(methyl)amino]phenyl]-7-bromo-9H-pyrido[3,4-b]indole-3-carboxylic acid]	3.42	5.48	
+/−	443	7.73					Cc1ccc2c(c1)[nH]c1c(-c3ccc(N(C)S(=O)(=O)c4ccccc4)cc3)nc(C(=O)O)cc12 [PA106, 1-[4-[benzenesulfonyl(methyl)amino]phenyl]-7-methyl-9H-pyrido[3,4-b]indole-3-carboxylic acid]	7.98	> 100	
				Insoluble	Neg		COC(=O)c1cc2c([nH]c3ccccc32)c(-c2ccc(SCc3ccccc3)cc2)n1 [PA64, methyl 1-(4-benzylsulfanylphenyl)-9H-pyrido[3,4-b]indole-3-carboxylate]	22.8	> 20	
		1.52 ± 1.13	4.54				CS(=O)(=O)N(Cc1ccccc1)c1ccc(-c2nc(C(=O)O)cc3c2[nH]c2ccccc23)cc1 [PA76, 1-[4-[benzyl(methylsulfonyl)amino]phenyl]-9H-pyrido[3,4-b]indole-3-carboxylic acid]	28.9	> 100	+
		1.06 ± 0.51	5.58				CS(=O)(=O)c1ccc(-c2nc(C(=O)O)cc3c2[nH]c2ccccc23)cc1 [PA35, 1-(4-methylsulfonylphenyl)-9H-pyrido[3,4-b]indole-3-carboxylic acid]	> 100	> 100	
